How the values were obtained:
[1] = test system: bedstraw; test: Test B pre/postemergence bedstraw; type: in vivo, Galium aparine
Procedure, shortened: (§1)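 Herbicidal effect was estimated by eye on a ten-point control scale after plants spent twelve to sixteen days in a greenhouse following soil or foliar treatment. Foliar sprays targeted plants at one to four leaves; all doses were formulated in a non-phytotoxic solvent with surfactant.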

[2] = test system: surinam grass; test: Test B pre/postemergence surinam grass; type: in vivo, Brachiaria decumbens
Procedure, shortened: as §1

[3] = test system: cocklebur; test: Test B pre/postemergence cocklebur; type: in vivo, Xanthium strumarium
Procedure, shortened: as §1

[4] = test system: corn; test: Test B pre/postemergence corn; type: in vivo, Zea mays
Procedure, shortened: as §1

[5] = test system: giant foxtail; test: Test B pre/postemergence giant foxtail; type: in vivo, Setaria faberii
Procedure, shortened: as §1

[6] = test system: pigweed; test: Test B pre/postemergence pigweed; type: in vivo, Amaranthus retroflexus
Procedure, shortened: as §1

[7] = test system: rape; test: Test B pre/postemergence rape; type: in vivo, Brassica napus
Procedure, shortened: as §1

[8] = test system: soybean; test: Test B pre/postemergence soybean; type: in vivo, Glycine max
Procedure, shortened: as §1

[9] = test system: sugar beet; test: Test B pre/postemergence sugar beet; type: in vivo, Beta vulgaris
Procedure, shortened: as §1

[10] = test system: velvetleaf; test: Test B pre/postemergence velvetleaf; type: in vivo, Abutilon theophrasti
Procedure, shortened: as §1

[11] = test system: wheat; test: Test B pre/postemergence wheat; type: in vivo, Triticum aestivum
Procedure, shortened: as §1

[12] = test system: wild oat; test: Test B pre/postemergence wild oat; type: in vivo, Avena fatua
Procedure, shortened: as §1

[13] = test system: purple nutsedge; test: Test B pre/postemergence purple nutsedge; type: in vivo, Cyperus rotundus
Procedure, shortened: as §1

[14] = test system: rice; test: Test B flood test rice; type: in vivo, Oryza sativa
Procedure, shortened: (§2)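 Flood test on plants grown to the 2-leaf stage; treated plants kept in greenhouse twelve to sixteen days, then visually rated against controls on a 0 (no effect) to 10 (complete control) scale.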

[15] = test system: smallflower flatsedge; test: Test B flood test smallflower flatsedge; type: in vivo, Cyperus difformis
Procedure, shortened: as §2

[16] = test system: duck salad; test: Test B flood test duck salad; type: in vivo, Heteranthera limosa
Procedure, shortened: as §2

[17] = Preemergence, Rate 250 g/ha, scale of 0 to 10 where 0 is no effect and 10 is complete control
[18] = Preemergence, Rate 500 g/ha, scale of 0 to 10 where 0 is no effect and 10 is complete control
[19] = Rate 62 g/ha, Postemergence, scale of 0 to 10 where 0 is no effect and 10 is complete control
[20] = Rate 125 g/ha, Postemergence, scale 0 to 10
[21] = Rate 125 g/ha, Preemergence, scale of 0 to 10 where 0 is no effect and 10 is complete control
[22] = Rate 500 g/ha, Postemergence, scale 0 to 10, 0 no effect, 10 complete control
[23] = Preemergence, Rate 62 g/ha, scale of 0 to 10 where 0 is no effect and 10 is complete control
[24] = Rate 62 g/ha, headed Pre-emergence (flood test species), scale 0 to 10 (0 no effect, 10 complete control)
[25] = Rate 125 g/ha, Pre-emergence, flood test species, scale 0 to 10 where 0 is no effect and 10 is complete control
[26] = Rate 250 g/ha, Pre-emergence, flood-test species, scale 0 to 10, 0 is no effect, 10 is complete control
[27] = Rate 500 g/ha, Pre-emergence, flood test species, scale 0 to 10 (0 no effect, 10 complete control)

## CC(C)N(C(=O)n1oc(=O)n(C2CC2)c1=O)c1ccc(Cl)cc1 [Compound 241]
[1]; [17]
  Bedstraw plant response rating: 7
[1]; [18]
  Plant response rating, Bedstraw: 10
[1]; [19]
  Bedstraw plant response rating: 0
[1]; [20]
  Bedstraw plant response rating: 3
[1]; [21]
  Bedstraw plant response rating: 0
[1]; Rate 250 g/ha, Postemergence
  Plant response rating (0 to 10; 0 is no effect, 10 is complete control), Bedstraw: 7
[1]; [22]
  Bedstraw plant response rating: 7
[2]; [23]
  B. signalgrass plant response rating: 0
[2]; [17]
  B. signalgrass plant response rating: 4
[2]; [18]
  Plant response rating, B. signalgrass: 4
[2]; [19]
  B. signalgrass plant response rating: 0
[2]; Rate 125 g/ha, Postemergence, scale 0 (no effect) to 10 (complete control)
  B. signalgrass plant response rating: 2
[2]; [21]
  B. signalgrass plant response rating: 2
[2]; Rate 250 g/ha, Postemergence
  Plant response rating (0 to 10; 0 is no effect, 10 is complete control), B. signalgrass: 4
[2]; [22]
  B. signalgrass plant response rating: 6
[3]; [23]
  Cocklebur plant response rating: 0
[3]; [17]
  Cocklebur plant response rating: 0
[3]; [18]
  Plant response rating, Cocklebur: 0
[3]; [19]
  Cocklebur plant response rating: 0
[3]; [20]
  Cocklebur plant response rating: 0
[3]; [21]
  Cocklebur plant response rating: 0
[3]; Rate 250 g/ha, Postemergence
  Plant response rating (0 to 10; 0 is no effect, 10 is complete control), Cocklebur: 1
[3]; [22]
  Cocklebur plant response rating: 1
[4]; [23]
  Corn plant response rating: 0
[4]; [17]
  Corn plant response rating: 0
[4]; [18]
  Plant response rating, Corn: 5
[4]; [19]
  Corn plant response rating: 0
[4]; [20]
  Corn plant response rating: 0
[4]; [21]
  Corn plant response rating: 0
[4]; Rate 250 g/ha, Postemergence
  Plant response rating (0 to 10; 0 is no effect, 10 is complete control), Corn: 0
[4]; [22]
  Corn plant response rating: 0
[5]; [23]
  Giant foxtail plant response rating: 10
[5]; [17]
  Giant foxtail plant response rating: 10
[5]; [18]
  Plant response rating, Giant foxtail: 10
[5]; [19]
  Giant foxtail plant response rating: 2
[5]; [21]
  Giant foxtail plant response rating: 10
[5]; Rate 250 g/ha, Postemergence
  Plant response rating (0 to 10; 0 is no effect, 10 is complete control), Giant foxtail: 6
[5]; [22]
  Giant foxtail plant response rating: 8
[6]; [23]
  Redroot pigweed plant response rating: 0
[6]; [17]
  Redroot pigweed plant response rating: 9
[6]; [18]
  Plant response rating, Redroot pigweed: 10
[6]; [19]
  Redroot pigweed plant response rating: 0
[6]; [21]
  Redroot pigweed plant response rating: 0
[6]; Rate 250 g/ha, Postemergence
  Plant response rating (0 to 10; 0 is no effect, 10 is complete control), Redroot pigweed: 0
[6]; [22]
  Redroot pigweed plant response rating: 7
[7]; [23]
  Rape plant response rating: 0
[7]; [17]
  Rape plant response rating: 5
[7]; [18]
  Plant response rating, Rape: 9
[7]; [19]
  Rape plant response rating: 0
[7]; [21]
  Rape plant response rating: 0
[7]; Rate 250 g/ha, Postemergence
  Plant response rating (0 to 10; 0 is no effect, 10 is complete control), Rape: 2
[7]; [22]
  Rape plant response rating: 4
[8]; [23]
  Soybean plant response rating: 0
[8]; [17]
  Soybean plant response rating: 0
[8]; [18]
  Plant response rating, Soybean: 4
[8]; [19]
  Soybean plant response rating: 1
[8]; [21]
  Soybean plant response rating: 0
[8]; [22]
  Soybean plant response rating: 4
[9]; [23]
  Sugarbeets plant response rating: 0
[9]; [17]
  Sugarbeets plant response rating: 6
[9]; [18]
  Plant response rating, Sugarbeets: 6
[9]; [19]
  Sugarbeets plant response rating: 0
[9]; [21]
  Sugarbeets plant response rating: 0
[9]; [22]
  Sugarbeets plant response rating: 5
[10]; [23]
  Velvetleaf plant response rating: 2
[10]; [17]
  Velvetleaf plant response rating: 5
[10]; [18]
  Plant response rating, Velvetleaf: 7
[10]; [19]
  Velvetleaf plant response rating: 2
[10]; [21]
  Velvetleaf plant response rating: 5
[10]; [22]
  Velvetleaf plant response rating: 1
[11]; [23]
  Wheat plant response rating: 0
[11]; [17]
  Wheat plant response rating: 3
[11]; [18]
  Plant response rating, Wheat: 5
[11]; [19]
  Wheat plant response rating: 0
[11]; [21]
  Wheat plant response rating: 0
[11]; [22]
  Wheat plant response rating: 8
[12]; [23]
  Wild oats plant response rating: 3
[12]; [17]
  Wild oats plant response rating: 8
[12]; [18]
  Plant response rating, Wild oats: 8
[12]; [19]
  Wild oats plant response rating: 0
[12]; [21]
  Wild oats plant response rating: 5
[12]; [22]
  Wild oats plant response rating: 2
[13]; [17]
  Nutsedge plant response rating: 10
[13]; [18]
  Plant response rating, Nutsedge: 10
[13]; [19]
  Nutsedge plant response rating: 0
[13]; [21]
  Nutsedge plant response rating: 0
[13]; Rate 250 g/ha, Postemergence
  Plant response rating (0 to 10; 0 is no effect, 10 is complete control), Nutsedge: 0
[13]; [22]
  Nutsedge plant response rating: 6
[14]; [24]
  Rice plant response rating: 0
[14]; [25]
  Rice plant response rating: 0
[14]; [26]
  Rice plant response rating: 0
[14]; [27]
  Rice plant response rating: 0
[15]; [24]
  S. Flatsedge plant response rating: 0
[15]; [25]
  S. Flatsedge plant response rating: 0
[15]; [26]
  S. Flatsedge plant response rating: 0
[15]; [27]
  S. Flatsedge plant response rating: 0
[16]; [24]
  Ducksalad plant response rating: 0
[16]; [25]
  Ducksalad plant response rating: 0
[16]; [26]
  Ducksalad plant response rating: 0
[16]; [27]
  Ducksalad plant response rating: 0

Source: patent publication US6737383B1, “Herbicidal oxadiazolidines” (priority 1999, dated 2004)
